Experimental data: ChEMBL document CHEMBL1201862, “PubChem BioAssay data set” (2004)
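Step 1: Grow cells in 96-well plates. Step 2: Expose to compound for 48 hours at 5 concentrations. Step 3: Interpolate endpoints linearly; if unreached, use highest concentration. The concentration for 50% growth inhibition is given as GI50.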 Active and inactive are the calls of the source. No stated cut-off is given here; in the data, active = GI50 up to about 1.1 µM and inactive = higher.

What was measured:
Experiment in all cases: DTP human tumour cell line panel, 48 h
[1] = test system: A498
[2] = test system: BT-549
[3] = test system: CAKI-1
[4] = test system: CCRF-CEM
[5] = test system: COLO 205
[6] = test system: DU-145
[7] = test system: HCC 2998
[8] = test system: HCT-116
[9] = test system: HCT-15
[10] = test system: HL-60
[11] = test system: HOP-62
[12] = test system: HOP-92
[13] = test system: HT-29
[14] = test system: Hs-578T
[15] = test system: IGROV-1
[16] = test system: K562
[17] = test system: KM12
[18] = test system: LOX IMVI
[19] = test system: M14
[20] = test system: MCF7
[21] = test system: MDA-MB-231
[22] = test system: MDA-MB-435
[23] = test system: MDA-N
[24] = test system: MOLT-4
[25] = test system: Malme-3M
[26] = test system: NCI-H226
[27] = test system: NCI-H23
[28] = test system: NCI-H460
[29] = test system: NCI/ADR-RES
[30] = test system: OVCAR-3
[31] = test system: OVCAR-4
[32] = test system: OVCAR-5
[33] = test system: OVCAR-8
[34] = test system: PC-3
[35] = test system: RPMI-8226
[36] = test system: RXF 393
[37] = test system: SF-295
[38] = test system: SK-MEL-28
[39] = test system: SK-MEL-2
[40] = test system: SK-MEL-5
[41] = test system: SK-OV-3
[42] = test system: SN12C
[43] = test system: SNB-19
[44] = test system: SNB-75
[45] = test system: SR
[46] = test system: SW-620
[47] = test system: T47D
[48] = test system: TK-10
[49] = test system: U-251
[50] = test system: UACC-257
[51] = test system: UACC-62
[52] = test system: UO-31
[53] = test system: 786-0
[54] = test system: A549
[55] = test system: ACHN
[56] = test system: EKVX
[57] = test system: NCI-H522
[58] = test system: SF-268
[59] = test system: SF-539

Which GI50 [1] does the source give for `CCn1c2ccccc2c2cc(NC(=O)c3c(C)[nH]c(=O)[nH]c3=S)ccc21` here?
Its GI50 is > 100 µM (inactive).

And the GI50 [2]?
The GI50 was 31 µM (inactive).

And the GI50 [3]?
Its GI50 is > 100 µM (inactive).

And the GI50 [4]?
The GI50 was 29.2 µM (inactive).

And the GI50 [5]?
Its GI50 is 22.9 µM (inactive).

What about the GI50 [6] of the same compound?
Its GI50 is 42.1 µM (inactive).

What about the GI50 [7] of the same compound?
The GI50 was 47.6 µM (inactive).

And the GI50 [8]?
The GI50 was 43.3 µM (inactive).

And the GI50 [9]?
The GI50 was 41.2 µM.

What about the GI50 [10] of the same compound?
The GI50 was 37 µM (inactive).

What about the GI50 [11] of the same compound?
Its GI50 is 77.8 µM (inactive).

What about the GI50 [12] of the same compound?
Its GI50 is > 100 µM (inactive).

And the GI50 [13]?
The GI50 was 48.2 µM (inactive).

And the GI50 [14]?
Its GI50 is 50.4 µM (inactive).

What about the GI50 [15] of the same compound?
Its GI50 is > 10 µM (inactive).

And the GI50 [16]?
The GI50 was 28.8 µM (inactive).

What about the GI50 [17] of the same compound?
The GI50 was 18.5 µM (inactive).

And the GI50 [18]?
Its GI50 is > 100 µM (inactive).

What about the GI50 [19] of the same compound?
Its GI50 is 24.2 µM (inactive).

What about the GI50 [20] of the same compound?
Its GI50 is 49.4 µM (inactive).

And the GI50 [21]?
The GI50 was 19.8 µM (inactive).

What about the GI50 [22] of the same compound?
The GI50 was 22.6 µM (inactive).

What about the GI50 [23] of the same compound?
Its GI50 is 29.2 µM (inactive).

And the GI50 [24]?
Its GI50 is 24.3 µM (inactive).

What about the GI50 [25] of the same compound?
Its GI50 is 49.4 µM (inactive).

What about the GI50 [26] of the same compound?
The GI50 was 33 µM (inactive).

And the GI50 [27]?
Its GI50 is 38 µM (inactive).

What about the GI50 [28] of the same compound?
Its GI50 is 58.3 µM (inactive).

What about the GI50 [29] of the same compound?
Its GI50 is > 100 µM (inactive).

What about the GI50 [30] of the same compound?
The GI50 was 35.7 µM (inactive).

What about the GI50 [31] of the same compound?
The GI50 was > 100 µM (inactive).

What about the GI50 [32] of the same compound?
The GI50 was 21.4 µM (inactive).

And the GI50 [33]?
Its GI50 is > 100 µM (inactive).

And the GI50 [34]?
The GI50 was 31.8 µM (inactive).

What about the GI50 [35] of the same compound?
The GI50 was 40.6 µM (inactive).

And the GI50 [36]?
The GI50 was 35.6 µM (inactive).

What about the GI50 [37] of the same compound?
Its GI50 is 61.4 µM (inactive).

What about the GI50 [38] of the same compound?
Its GI50 is 33.3 µM (inactive).

And the GI50 [39]?
The GI50 was 51.3 µM (inactive).

And the GI50 [40]?
The GI50 was 42.1 µM (inactive).

What about the GI50 [41] of the same compound?
The GI50 was > 100 µM (inactive).

And the GI50 [42]?
Its GI50 is 69 µM (inactive).

What about the GI50 [43] of the same compound?
Its GI50 is 49.1 µM (inactive).

And the GI50 [44]?
Its GI50 is > 100 µM (inactive).

What about the GI50 [45] of the same compound?
The GI50 was 41 µM (inactive).

And the GI50 [46]?
Its GI50 is 31.7 µM (inactive).

What about the GI50 [47] of the same compound?
The GI50 was > 100 µM (inactive).

What about the GI50 [48] of the same compound?
Its GI50 is 53.6 µM (inactive).

And the GI50 [49]?
The GI50 was 31.5 µM (inactive).

What about the GI50 [50] of the same compound?
The GI50 was 70.3 µM (inactive).

What about the GI50 [51] of the same compound?
Its GI50 is 31.9 µM (inactive).

And the GI50 [52]?
The GI50 was 51.3 µM (inactive).

With `CCOC(=O)C(SCCO)C(C(=O)OCC)n1ccc(N)nc1=O` (stereo not given) as the compound, how does the GI50 [53] read?
Its GI50 is > 100 µM (inactive).

What about the GI50 [1] of the same compound?
The GI50 was > 100 µM (inactive).

What about the GI50 [54] of the same compound?
The GI50 was > 100 µM (inactive).

What about the GI50 [55] of the same compound?
Its GI50 is > 100 µM (inactive).

What about the GI50 [2] of the same compound?
Its GI50 is > 100 µM (inactive).

What about the GI50 [3] of the same compound?
The GI50 was > 100 µM (inactive).

What about the GI50 [4] of the same compound?
The GI50 was > 100 µM (inactive).

And the GI50 [5]?
The GI50 was > 100 µM (inactive).

And the GI50 [6]?
Its GI50 is > 100 µM (inactive).

And the GI50 [56]?
The GI50 was > 100 µM (inactive).

What about the GI50 [7] of the same compound?
Its GI50 is > 100 µM (inactive).

And the GI50 [8]?
Its GI50 is > 100 µM (inactive).

What about the GI50 [9] of the same compound?
The GI50 was > 100 µM.

What about the GI50 [10] of the same compound?
The GI50 was > 100 µM (inactive).

And the GI50 [11]?
The GI50 was > 100 µM (inactive).

And the GI50 [12]?
The GI50 was > 100 µM (inactive).

And the GI50 [13]?
The GI50 was > 100 µM (inactive).

And the GI50 [14]?
The GI50 was > 100 µM (inactive).

And the GI50 [15]?
The GI50 was > 100 µM (inactive).

And the GI50 [16]?
Its GI50 is > 100 µM (inactive).

What about the GI50 [17] of the same compound?
Its GI50 is > 100 µM (inactive).

And the GI50 [18]?
Its GI50 is > 100 µM (inactive).

And the GI50 [19]?
Its GI50 is > 100 µM (inactive).

What about the GI50 [20] of the same compound?
The GI50 was > 100 µM (inactive).

And the GI50 [21]?
The GI50 was > 100 µM (inactive).

What about the GI50 [22] of the same compound?
The GI50 was > 100 µM (inactive).

And the GI50 [23]?
Its GI50 is > 100 µM (inactive).

And the GI50 [24]?
Its GI50 is > 100 µM (inactive).

What about the GI50 [25] of the same compound?
Its GI50 is > 100 µM (inactive).

What about the GI50 [26] of the same compound?
The GI50 was > 100 µM (inactive).

What about the GI50 [27] of the same compound?
The GI50 was > 100 µM (inactive).

What about the GI50 [28] of the same compound?
The GI50 was > 100 µM (inactive).

What about the GI50 [57] of the same compound?
Its GI50 is > 100 µM (inactive).

And the GI50 [29]?
Its GI50 is > 100 µM (inactive).

And the GI50 [30]?
Its GI50 is > 100 µM (inactive).

What about the GI50 [31] of the same compound?
Its GI50 is > 100 µM (inactive).

What about the GI50 [32] of the same compound?
The GI50 was > 100 µM (inactive).

And the GI50 [33]?
Its GI50 is > 100 µM (inactive).

And the GI50 [34]?
Its GI50 is > 100 µM (inactive).

And the GI50 [35]?
Its GI50 is > 100 µM (inactive).

What about the GI50 [58] of the same compound?
Its GI50 is > 100 µM (inactive).

And the GI50 [37]?
The GI50 was > 100 µM (inactive).

And the GI50 [59]?
Its GI50 is > 100 µM (inactive).

And the GI50 [38]?
Its GI50 is > 100 µM (inactive).

What about the GI50 [39] of the same compound?
Its GI50 is > 100 µM (inactive).

What about the GI50 [40] of the same compound?
The GI50 was > 100 µM (inactive).

What about the GI50 [41] of the same compound?
Its GI50 is > 100 µM (inactive).

And the GI50 [42]?
The GI50 was > 100 µM (inactive).

What about the GI50 [43] of the same compound?
The GI50 was > 100 µM (inactive).

And the GI50 [44]?
The GI50 was > 100 µM (inactive).

And the GI50 [45]?
The GI50 was > 100 µM (inactive).

What about the GI50 [46] of the same compound?
The GI50 was > 100 µM (inactive).

And the GI50 [47]?
The GI50 was > 100 µM (inactive).

What about the GI50 [48] of the same compound?
Its GI50 is > 100 µM (inactive).

What about the GI50 [49] of the same compound?
The GI50 was > 100 µM (inactive).

What about the GI50 [50] of the same compound?
Its GI50 is > 100 µM (inactive).

And the GI50 [51]?
The GI50 was > 100 µM (inactive).

And the GI50 [52]?
The GI50 was > 100 µM (inactive).
